From patent US20260183295A1, “METHODS AND COMPOSITIONS FOR TREATING CANCER” (Onconova Therapeutics, Inc., priority 2022, published 2026)

Experiments:
NanoLuc-CDK16 Fusion = target: T1, NanoLuc-CDK16 Fusion (Homo sapiens, UniProt Q00536); assay: Cellular NanoBRET assay in HEK293 cells, raw data ratio; assay type: cell-based
T1 construct: expressed in transfected cells; host or cells: HEK293, transient
Protocol: HEK293 cells were transfected with 1 ug of NanoLuc-CDK16 Fusion vector and 9 ug of either carrier DNA or cyclin Y DAN. The HEK293 cells transiently expressing the vectors were then seeded into the wells of 384-well plates. The cells were pre-treated with the NanoBRET Tracer K-10 (0.5 uM) and then treated with 3-fold serial dilutions (10 uM-0.5 nM), of Compound 1 or the reference compound APY-69 for 1 hour. The BRET signal was measured on an Envision2104 Multilabel Reader. IC50 value was calculated and IC50 curve was plotted using the GraphPad Prism 4 program based on a sigmoidal dose response equation.

CELF1 = target: T2, CELF1 (Homo sapiens, UniProt Q92879); assay: CETSA-MS, MDA-MB-231 intact cells; assay type: cell-based; conditions: 2 μM and 20 μM
T2 construct: endogenous in cells; host or cells: MDA-MB-231
Protocol: (§1) TNBC MDA-MB-231 cells were grown at 37° C. in 5% CO2 and suspended in warm media and split into 4 equal volumes. […] Cells were incubated and then pelleted. Following pelleting, the cells were washed, resuspended, and heated in a thermal gradient. Following heating, the samples were flash frozen and lysed in lysis buffer, agitated by vortex, and sonicated prior to centrifugation. The supernatant was collected and denaturation buffer added. Cold acetone was then added to the cell samples, and protein collected by centrifugation. Pellets were then washed twice with cold acetone and the washed pellets prior to labeling.
(§2) The intact cell protein samples and lysate protein samples were then digested and labeled for mass spectrometry analysis according to the manufacturer's recommended protocols. Digested and labeled protein samples were analyzed by mass spectrometry proteomic analysis and the resulting protein targets were analyzed and plotted.

FASTKD5 = target: T3, FASTKD5 (Homo sapiens, UniProt Q7L8L6); assay: CETSA-MS, MDA-MB-231 intact cells; assay type: cell-based; conditions: 2 μM and 20 μM
T3 construct: 148 targets unique to Compound 1 in MDA-MB-231 intact cells; endogenous in cells; host or cells: MDA-MB-231
Protocol: as §1, §2

COG8 = target: T4, COG8 (Homo sapiens, UniProt Q96MW5); assay: CETSA-MS, MDA-MB-231 intact cells; assay type: cell-based; conditions: 2 μM and 20 μM
T4 construct: endogenous in cells; host or cells: MDA-MB-231
Protocol: as §1, §2

LRPPRC = target: T5, LRPPRC (Homo sapiens, UniProt P42704); assay: CETSA-MS, MDA-MB-231 intact cells; assay type: cell-based; conditions: 2 μM and 20 μM
T5 construct: endogenous in cells; host or cells: MDA-MB-231
Protocol: as §1, §2

MATR3 = target: T6, MATR3 (Homo sapiens, UniProt P43243); assay: CETSA-MS, MDA-MB-231 intact cells; assay type: cell-based; conditions: 2 μM and 20 μM
T6 construct: endogenous in cells; host or cells: MDA-MB-231
Protocol: as §1, §2

AP2S1 = target: T7, AP2S1 (Homo sapiens, UniProt P53680); assay: CETSA-MS, MDA-MB-231 intact cells; assay type: cell-based; conditions: 2 μM and 20 μM
T7 construct: endogenous in cells; host or cells: MDA-MB-231
Protocol: as §1, §2

CDC5L = target: T8, CDC5L (Homo sapiens, UniProt Q99459); assay: CETSA-MS, MDA-MB-231 intact cells; assay type: cell-based; conditions: 2 μM and 20 μM
T8 construct: endogenous in cells; host or cells: MDA-MB-231
Protocol: as §1, §2

LMAN2 = target: T9, LMAN2 (Homo sapiens, UniProt Q12907); assay: CETSA-MS, MDA-MB-231 intact cells; assay type: cell-based; conditions: 2 μM and 20 μM
T9 construct: endogenous in cells; host or cells: MDA-MB-231
Protocol: as §1, §2

SCAF1 = target: T10, SCAF1 (Homo sapiens, UniProt Q9H7N4); assay: CETSA-MS, MDA-MB-231 intact cells; assay type: cell-based; conditions: 2 μM and 20 μM
T10 construct: endogenous in cells; host or cells: MDA-MB-231
Protocol: as §1, §2

SMU1 = target: T11, SMU1 (Homo sapiens, UniProt Q2TAY7); assay: CETSA-MS, MDA-MB-231 intact cells; assay type: cell-based; conditions: 2 μM and 20 μM
T11 construct: endogenous in cells; host or cells: MDA-MB-231
Protocol: as §1, §2

MAMDC2 = target: T12, MAMDC2 (Homo sapiens, UniProt Q7Z304); assay: CETSA-MS, MDA-MB-231 intact cells; assay type: cell-based; conditions: 2 μM and 20 μM
T12 construct: endogenous in cells; host or cells: MDA-MB-231
Protocol: as §1, §2

AP2M1 = target: T13, AP2M1 (Homo sapiens, UniProt Q96CW1); assay: CETSA-MS, MDA-MB-231 intact cells; assay type: cell-based; conditions: 2 μM and 20 μM
T13 construct: endogenous in cells; host or cells: MDA-MB-231
Protocol: as §1, §2

CAVIN1 = target: T14, CAVIN1 (Homo sapiens, UniProt Q6NZI2); assay: CETSA-MS, MDA-MB-231 intact cells; assay type: cell-based; conditions: 2 μM and 20 μM
T14 construct: endogenous in cells; host or cells: MDA-MB-231
Protocol: as §1, §2

NAP1L1 = target: T15, NAP1L1 (Homo sapiens, UniProt P55209); assay: CETSA-MS, MDA-MB-231 intact cells; assay type: cell-based; conditions: 2 μM and 20 μM
T15 construct: endogenous in cells; host or cells: MDA-MB-231
Protocol: as §1, §2

TTK = target: T16, TTK (Homo sapiens, UniProt P33981); assay: CETSA-MS, MDA-MB-231 intact cells; assay type: cell-based; conditions: 2 μM and 20 μM
T16 construct: endogenous in cells; host or cells: MDA-MB-231
Protocol: as §1, §2

HNRNPL = target: T17, HNRNPL (Homo sapiens, UniProt P14866); assay: CETSA-MS, MDA-MB-231 intact cells; assay type: cell-based; conditions: 2 μM and 20 μM
T17 construct: endogenous in cells; host or cells: MDA-MB-231
Protocol: as §1, §2

TLE5 = target: T18, TLE5 (Homo sapiens, UniProt Q08117); assay: CETSA-MS, MDA-MB-231 intact cells; assay type: cell-based; conditions: 2 μM and 20 μM
T18 construct: endogenous in cells; host or cells: MDA-MB-231
Protocol: as §1, §2

CDK4/cyclin D1 [1] = target: T19, CDK4/cyclin D1 (Homo sapiens, UniProt P11802); assay: CDK4/cyclin D1 NanoBret IC50; assay type: cell-based
MDA-MB-231 cells = assay: MTT assay, 24 hours; assay type: cell-based
CDK4/cyclin D1 [2] = target: T19, CDK4/cyclin D1; assay: CDK4/cyclin D1 In Vitro IC50; assay type: biochemical
Protocol: Substrate was prepared in freshly prepared base reaction buffer. Any required cofactors were delivered to the substrate solution above. Indicated kinase was delivered into the substrate solution and the solution was gently mixed. Compounds were delivered in 100% DMSO into the kinase reaction mixture by Acoustic technology (Echo550; nanoliter range) and incubated for 20 minutes at room temperature. 33P-ATP was delivered into the reaction mixture to initiate the reaction. The kinase reaction was incubated for 2 hours at room temperature. Kinase activity was detected by P81 filter-binding method.

Caspase 3/7 = Caspase 3/7 Glo assay, MDA-MB-231 cells, 24 hours; assay type: cell-based
Protocol: To determine how Compound 1 induces cell death, Caspase 3/7 activity was measured using the Caspase 3/7 Glo assay.
The effect of zVAD-FMK treatment on Caspase 3/7 activity was assessed.

B2M = assay: qPCR of mRNA expression, PyMT cells; assay type: cell-based, mouse; conditions: 24 and 48 hours

T1 sequence (Q00536 whole entry, the tested form may be a part): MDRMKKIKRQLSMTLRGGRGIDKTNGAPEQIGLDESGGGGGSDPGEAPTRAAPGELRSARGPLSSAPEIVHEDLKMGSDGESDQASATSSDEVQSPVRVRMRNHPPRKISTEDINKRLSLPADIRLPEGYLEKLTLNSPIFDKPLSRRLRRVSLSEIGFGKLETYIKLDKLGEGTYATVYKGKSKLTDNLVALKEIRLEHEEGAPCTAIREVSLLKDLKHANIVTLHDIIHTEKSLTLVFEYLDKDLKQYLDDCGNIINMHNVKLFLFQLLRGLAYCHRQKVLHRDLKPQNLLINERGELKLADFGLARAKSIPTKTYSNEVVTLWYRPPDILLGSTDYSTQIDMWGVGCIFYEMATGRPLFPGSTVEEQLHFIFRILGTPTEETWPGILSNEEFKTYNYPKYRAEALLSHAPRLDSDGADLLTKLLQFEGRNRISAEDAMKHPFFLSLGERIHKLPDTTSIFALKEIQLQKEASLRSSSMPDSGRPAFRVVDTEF
T1 sequence (Q8ND76 whole entry partner, the tested form may be a part): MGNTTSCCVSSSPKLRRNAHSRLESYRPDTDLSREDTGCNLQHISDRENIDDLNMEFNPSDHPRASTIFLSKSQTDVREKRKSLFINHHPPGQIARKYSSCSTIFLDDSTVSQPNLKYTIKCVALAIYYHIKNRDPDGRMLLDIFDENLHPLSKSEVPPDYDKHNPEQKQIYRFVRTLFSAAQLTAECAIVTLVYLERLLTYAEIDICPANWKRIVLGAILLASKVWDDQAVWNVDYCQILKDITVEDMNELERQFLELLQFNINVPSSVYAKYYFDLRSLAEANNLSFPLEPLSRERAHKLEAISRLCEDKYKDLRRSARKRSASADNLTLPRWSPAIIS
T19 sequence (P11802 whole entry): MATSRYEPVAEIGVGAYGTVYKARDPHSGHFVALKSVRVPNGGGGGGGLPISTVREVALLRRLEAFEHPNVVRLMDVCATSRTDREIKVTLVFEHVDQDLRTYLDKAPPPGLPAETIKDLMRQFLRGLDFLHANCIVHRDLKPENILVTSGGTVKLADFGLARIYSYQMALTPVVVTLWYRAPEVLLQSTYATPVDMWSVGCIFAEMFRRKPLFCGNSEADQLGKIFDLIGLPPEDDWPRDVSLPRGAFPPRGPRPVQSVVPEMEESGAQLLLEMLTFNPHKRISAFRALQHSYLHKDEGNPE
T19 sequence (P24385 whole entry partner): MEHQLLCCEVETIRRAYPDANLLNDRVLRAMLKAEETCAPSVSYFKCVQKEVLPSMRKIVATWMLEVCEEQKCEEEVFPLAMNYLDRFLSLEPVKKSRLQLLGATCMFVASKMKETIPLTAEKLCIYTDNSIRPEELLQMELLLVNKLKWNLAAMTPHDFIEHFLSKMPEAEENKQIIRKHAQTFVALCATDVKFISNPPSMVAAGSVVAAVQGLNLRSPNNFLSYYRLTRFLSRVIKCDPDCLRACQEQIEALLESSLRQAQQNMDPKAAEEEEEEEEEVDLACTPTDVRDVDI
T9 sequence (Q12907 45-356): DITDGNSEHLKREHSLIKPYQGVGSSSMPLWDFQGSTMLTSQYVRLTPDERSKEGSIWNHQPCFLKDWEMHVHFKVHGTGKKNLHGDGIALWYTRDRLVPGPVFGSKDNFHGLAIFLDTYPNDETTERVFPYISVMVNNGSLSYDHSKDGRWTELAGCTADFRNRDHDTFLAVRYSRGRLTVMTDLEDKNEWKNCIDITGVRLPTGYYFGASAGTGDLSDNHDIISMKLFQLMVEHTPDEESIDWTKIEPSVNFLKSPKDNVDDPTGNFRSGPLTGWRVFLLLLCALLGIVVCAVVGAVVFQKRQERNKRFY
T7 sequence (P53680 whole entry): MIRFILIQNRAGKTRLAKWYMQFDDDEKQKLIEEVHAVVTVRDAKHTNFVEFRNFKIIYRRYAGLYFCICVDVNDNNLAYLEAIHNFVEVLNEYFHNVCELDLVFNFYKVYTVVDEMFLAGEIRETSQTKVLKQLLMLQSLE
T7 sequence (O95782 whole entry partner): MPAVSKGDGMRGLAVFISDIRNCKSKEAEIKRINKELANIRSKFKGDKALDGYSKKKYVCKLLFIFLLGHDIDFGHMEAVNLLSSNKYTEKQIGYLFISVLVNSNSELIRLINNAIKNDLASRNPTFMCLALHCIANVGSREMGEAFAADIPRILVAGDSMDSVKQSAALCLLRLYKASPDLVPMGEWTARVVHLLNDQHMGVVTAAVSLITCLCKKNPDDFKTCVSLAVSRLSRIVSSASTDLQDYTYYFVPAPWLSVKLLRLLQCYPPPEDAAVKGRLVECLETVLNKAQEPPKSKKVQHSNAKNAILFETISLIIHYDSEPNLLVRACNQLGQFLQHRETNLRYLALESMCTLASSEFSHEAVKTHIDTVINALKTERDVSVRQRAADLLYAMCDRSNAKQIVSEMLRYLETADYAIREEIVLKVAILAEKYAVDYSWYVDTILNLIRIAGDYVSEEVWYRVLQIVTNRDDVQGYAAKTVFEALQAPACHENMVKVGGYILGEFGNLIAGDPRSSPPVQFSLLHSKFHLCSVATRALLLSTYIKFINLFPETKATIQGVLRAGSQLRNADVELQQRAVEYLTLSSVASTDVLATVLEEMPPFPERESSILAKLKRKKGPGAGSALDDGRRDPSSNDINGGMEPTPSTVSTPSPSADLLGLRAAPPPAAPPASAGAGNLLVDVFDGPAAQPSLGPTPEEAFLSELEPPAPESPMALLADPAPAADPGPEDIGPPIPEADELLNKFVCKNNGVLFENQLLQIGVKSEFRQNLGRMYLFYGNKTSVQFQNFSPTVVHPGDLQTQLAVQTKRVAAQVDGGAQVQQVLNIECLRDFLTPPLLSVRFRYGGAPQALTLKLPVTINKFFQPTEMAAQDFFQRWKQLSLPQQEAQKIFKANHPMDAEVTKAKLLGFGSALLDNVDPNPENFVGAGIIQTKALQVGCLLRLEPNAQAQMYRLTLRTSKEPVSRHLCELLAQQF
T7 sequence (P63010 whole entry partner): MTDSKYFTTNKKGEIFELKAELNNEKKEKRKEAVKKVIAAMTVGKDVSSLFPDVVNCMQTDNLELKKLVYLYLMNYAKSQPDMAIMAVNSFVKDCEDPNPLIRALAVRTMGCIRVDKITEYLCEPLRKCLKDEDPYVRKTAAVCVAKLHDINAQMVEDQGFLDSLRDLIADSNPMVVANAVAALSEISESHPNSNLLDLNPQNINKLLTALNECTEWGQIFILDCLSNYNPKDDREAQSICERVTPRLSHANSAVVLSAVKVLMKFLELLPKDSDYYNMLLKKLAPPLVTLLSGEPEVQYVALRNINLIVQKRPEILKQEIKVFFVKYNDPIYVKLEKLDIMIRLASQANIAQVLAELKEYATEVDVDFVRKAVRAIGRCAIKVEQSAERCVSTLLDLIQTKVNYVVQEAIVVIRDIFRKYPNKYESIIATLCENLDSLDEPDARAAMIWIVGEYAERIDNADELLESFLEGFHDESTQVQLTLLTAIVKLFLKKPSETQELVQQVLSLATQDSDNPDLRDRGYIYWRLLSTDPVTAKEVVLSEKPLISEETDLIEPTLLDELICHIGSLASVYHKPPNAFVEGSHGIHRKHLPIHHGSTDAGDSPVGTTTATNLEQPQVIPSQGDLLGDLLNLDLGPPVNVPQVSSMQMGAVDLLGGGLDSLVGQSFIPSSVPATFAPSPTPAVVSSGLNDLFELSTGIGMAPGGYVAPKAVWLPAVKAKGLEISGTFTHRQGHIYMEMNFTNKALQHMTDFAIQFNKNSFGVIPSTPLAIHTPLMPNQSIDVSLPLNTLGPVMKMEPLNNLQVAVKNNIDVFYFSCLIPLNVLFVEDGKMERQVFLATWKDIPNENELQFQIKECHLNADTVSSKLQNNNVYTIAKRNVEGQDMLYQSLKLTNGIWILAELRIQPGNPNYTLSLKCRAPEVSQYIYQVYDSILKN
T7 sequence (Q96CW1 whole entry partner): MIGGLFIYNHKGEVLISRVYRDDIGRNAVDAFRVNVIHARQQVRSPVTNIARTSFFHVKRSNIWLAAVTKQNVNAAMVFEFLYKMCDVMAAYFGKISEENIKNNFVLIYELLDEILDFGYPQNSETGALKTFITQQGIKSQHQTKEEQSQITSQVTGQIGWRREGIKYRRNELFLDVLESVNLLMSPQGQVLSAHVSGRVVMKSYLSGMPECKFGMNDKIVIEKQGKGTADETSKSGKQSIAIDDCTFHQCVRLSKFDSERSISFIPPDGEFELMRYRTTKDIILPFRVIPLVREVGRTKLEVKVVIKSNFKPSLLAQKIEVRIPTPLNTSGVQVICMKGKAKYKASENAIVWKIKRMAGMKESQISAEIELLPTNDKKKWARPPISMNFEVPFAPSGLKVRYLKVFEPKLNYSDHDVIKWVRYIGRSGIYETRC
T18 sequence (Q08117 whole entry): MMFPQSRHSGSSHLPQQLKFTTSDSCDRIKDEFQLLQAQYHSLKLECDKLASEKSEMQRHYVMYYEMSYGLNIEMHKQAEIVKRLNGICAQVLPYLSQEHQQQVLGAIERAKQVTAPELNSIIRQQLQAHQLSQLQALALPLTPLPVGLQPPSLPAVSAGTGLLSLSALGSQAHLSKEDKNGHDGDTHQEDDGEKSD
T2 sequence (Q92879 whole entry): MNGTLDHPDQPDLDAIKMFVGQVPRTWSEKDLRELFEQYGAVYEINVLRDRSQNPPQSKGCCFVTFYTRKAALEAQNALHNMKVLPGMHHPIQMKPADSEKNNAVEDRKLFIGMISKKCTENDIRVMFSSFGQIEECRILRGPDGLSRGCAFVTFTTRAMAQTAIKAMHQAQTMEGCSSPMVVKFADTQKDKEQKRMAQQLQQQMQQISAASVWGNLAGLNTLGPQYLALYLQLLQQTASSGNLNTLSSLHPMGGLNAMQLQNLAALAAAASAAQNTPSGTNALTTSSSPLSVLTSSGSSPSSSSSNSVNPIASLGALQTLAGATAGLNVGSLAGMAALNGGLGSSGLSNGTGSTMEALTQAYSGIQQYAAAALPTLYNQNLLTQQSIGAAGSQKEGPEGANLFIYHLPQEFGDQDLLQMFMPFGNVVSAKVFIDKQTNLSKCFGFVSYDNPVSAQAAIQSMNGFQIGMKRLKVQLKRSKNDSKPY

SMILES: CN1CCN(c2ccc(Nc3ncc4cc(C#N)c(=O)n(C5CCCC5)c4n3)cc2)CC1 [Compound 1, 8-cyclopentyl-2-((4-(4-methylpiperazin-1-yl)phenyl)amino)-7-oxo-7,8-dihydropyrido[2,3-d]pyrimidine-6-carbonitrile]
- raw data ratio 600 nm/460 nm, Data 1 (NanoLuc-CDK16 Fusion; Conc. 0.0005 μM): 0.07557
- raw data ratio 600 nm/460 nm, Data 2 (NanoLuc-CDK16 Fusion; Conc. 0.0005 μM): 0.0761
- raw data ratio 600 nm/460 nm, Data 1 (NanoLuc-CDK16 Fusion; Conc. 0.0015 μM): 0.06908
- raw data ratio 600 nm/460 nm, Data 2 (NanoLuc-CDK16 Fusion; Conc. 0.0015 μM): 0.06919
- raw data ratio 600 nm/460 nm, Data 1 (NanoLuc-CDK16 Fusion; Conc. 0.0046 μM): 0.05883
- raw data ratio 600 nm/460 nm, Data 2 (NanoLuc-CDK16 Fusion; Conc. 0.0046 μM): 0.05984
- raw data ratio 600 nm/460 nm, Data 1 (NanoLuc-CDK16 Fusion; Conc. 0.0137 μM): 0.04626
- raw data ratio 600 nm/460 nm, Data 2 (NanoLuc-CDK16 Fusion; Conc. 0.0137 μM): 0.04683
- raw data ratio 600 nm/460 nm, Data 1 (NanoLuc-CDK16 Fusion; Conc. 0.0412 μM): 0.04036
- raw data ratio 600 nm/460 nm, Data 2 (NanoLuc-CDK16 Fusion; Conc. 0.0412 μM): 0.04048
- raw data ratio 600 nm/460 nm, Data 1 (NanoLuc-CDK16 Fusion; Conc. 0.1235 μM): 0.02963
- raw data ratio 600 nm/460 nm, Data 2 (NanoLuc-CDK16 Fusion; Conc. 0.1235 μM): 0.03005
- raw data ratio 600 nm/460 nm, Data 1 (NanoLuc-CDK16 Fusion; Conc. 0.3704 μM): 0.02837
- raw data ratio 600 nm/460 nm, Data 2 (NanoLuc-CDK16 Fusion; Conc. 0.3704 μM): 0.02942
- raw data ratio 600 nm/460 nm, Data 1 (NanoLuc-CDK16 Fusion; Conc. 1.1111 μM): 0.02836
- raw data ratio 600 nm/460 nm, Data 2 (NanoLuc-CDK16 Fusion; Conc. 1.1111 μM): 0.02899
- raw data ratio 600 nm/460 nm, Data 1 (NanoLuc-CDK16 Fusion; Conc. 3.3333 μM): 0.02996
- raw data ratio 600 nm/460 nm, Data 2 (NanoLuc-CDK16 Fusion; Conc. 3.3333 μM): 0.02908
- raw data ratio 600 nm/460 nm, Data 1 (NanoLuc-CDK16 Fusion; Conc. 10.0000 μM): 0.02733
- raw data ratio 600 nm/460 nm, Data 2 (NanoLuc-CDK16 Fusion; Conc. 10.0000 μM): 0.02831
- Group (CETSA-MS thermal shift) (CELF1): Stabilization
- Group (CETSA-MS thermal shift) (FASTKD5): Stabilization
- Group (CETSA-MS thermal shift) (COG8): Destabilization
- Group (CETSA-MS thermal shift) (LRPPRC): Stabilization
- Group (CETSA-MS thermal shift) (MATR3): Stabilization
- Group (CETSA-MS thermal shift) (AP2S1): Destabilization
- Group (CETSA-MS thermal shift) (CDC5L): Stabilization
- Group (CETSA-MS thermal shift) (LMAN2): Stabilization
- Group (CETSA-MS thermal shift) (SCAF1): Stabilization
- Group (CETSA-MS thermal shift) (SMU1): Stabilization
- Group (CETSA-MS thermal shift) (MAMDC2): Stabilization
- Group (CETSA-MS thermal shift) (AP2M1): Destabilization
- Group (CETSA-MS thermal shift) (CAVIN1): Stabilization
- Group (CETSA-MS thermal shift) (NAP1L1): Stabilization
- Group (CETSA-MS thermal shift) (TTK): Stabilization
- Group (CETSA-MS thermal shift) (HNRNPL): Stabilization
- Group (CETSA-MS thermal shift) (TLE5): Destabilization
- IC50 (CDK4/cyclin D1 [1]): 1 nM
- cell viability (MTT) (MDA-MB-231 cells; 2.5 μM, 5 μM and 10 μM, compared to Comparator 1 and Comparator 2): decreases cell viability to a greater extent
- effect of zVAD-FMK on cell death, MTT assay (MDA-MB-231 cells; zVAD-FMK 20 μM (FIG. 25)): unaffected by zVAD-FMK treatment
- IC50 (CDK4/cyclin D1 [2]): 2 nM
- Caspase 3/7 activity (Caspase 3/7; Compound 1, Comparator 1, 2 5 μM, Comparator 4 10 μM (FIG. 22)): modest increase
- Caspase 3/7 activity (Caspase 3/7; without zVAD-FMK, relative to DMSO (FIG. 26)): small increase
- effect of zVAD-FMK on induced Caspase 3/7 activity (Caspase 3/7; zVAD-FMK 20 μM (FIG. 26)): inhibited by zVAD-FMK treatment
- B2M mRNA levels (B2M): to a greater extent than Comparator 1 did
